Experiment: xn = mol fraction of the nth substance listed
Details: Liquid, Taylor dispersion method, x2 = 0

CC(C)CCCC(C)CCCC(C)CCCCC(C)CCCC(C)CCCC(C)C (centres undefined) [2,6,10,15,19,23-hexamethyltetracosane] + O=C=O
Details | binary diffusion coefficient [m2/s]
298 K, 1100 kPa | 9.6e-10
298 K, 10000 kPa | 8.6e-10
298 K, 32000 kPa | 6.9e-10
298 K, 52000 kPa | 5.6e-10
298 K, 66000 kPa | 4.9e-10
323 K, 1100 kPa | 1.78e-09
323 K, 10000 kPa | 1.61e-09
323 K, 30000 kPa | 1.35e-09
323 K, 52000 kPa | 1.14e-09
323 K, 64000 kPa | 1.02e-09
348 K, 1000 kPa | 2.83e-09
348 K, 11000 kPa | 2.57e-09
348 K, 31000 kPa | 2.18e-09
348 K, 50000 kPa | 1.94e-09
348 K, 67000 kPa | 1.73e-09
373 K, 1000 kPa | 4.06e-09
373 K, 10000 kPa | 3.72e-09
373 K, 30000 kPa | 3.21e-09
373 K, 47000 kPa | 2.88e-09
373 K, 66000 kPa | 2.58e-09
398 K, 1000 kPa | 5.45e-09
398 K, 11000 kPa | 4.98e-09
398 K, 31000 kPa | 4.38e-09
398 K, 50000 kPa | 3.89e-09
398 K, 66000 kPa | 3.55e-09
423 K, 1000 kPa | 7.01e-09
423 K, 11000 kPa | 6.36e-09
423 K, 30000 kPa | 5.69e-09
423 K, 50000 kPa | 5e-09
423 K, 67000 kPa | 4.6e-09

CCCCCCCCCC [decane] + O=C=O
Details | binary diffusion coefficient [m2/s]
298 K, 1100 kPa | 4.69e-09
298 K, 22000 kPa | 4e-09
298 K, 45000 kPa | 3.22e-09
298 K, 68000 kPa | 2.84e-09
323 K, 1100 kPa | 6.44e-09
323 K, 22000 kPa | 5.41e-09
323 K, 46000 kPa | 4.39e-09
323 K, 68000 kPa | 3.91e-09
373 K, 1100 kPa | 1.04e-08
373 K, 22000 kPa | 8.76e-09
373 K, 44000 kPa | 7.08e-09
373 K, 67000 kPa | 6.34e-09
423 K, 1100 kPa | 1.51e-08
423 K, 21000 kPa | 1.27e-08
423 K, 43000 kPa | 1.02e-08
423 K, 66000 kPa | 9.17e-09

CCCCCCCCCCCC [dodecane] + O=C=O
Details | binary diffusion coefficient [m2/s]
298 K, 1300 kPa | 3.72e-09
298 K, 24000 kPa | 3.1e-09
298 K, 47000 kPa | 2.65e-09
323 K, 1200 kPa | 5.53e-09
323 K, 25000 kPa | 4.23e-09
323 K, 46000 kPa | 3.65e-09
323 K, 63000 kPa | 3.44e-09
373 K, 1200 kPa | 9.3e-09
373 K, 24000 kPa | 7.57e-09
373 K, 46000 kPa | 6.54e-09
373 K, 61000 kPa | 5.98e-09
423 K, 1200 kPa | 1.35e-08
423 K, 23000 kPa | 1.14e-08
423 K, 46000 kPa | 9.75e-09
423 K, 65000 kPa | 8.65e-09

CCCCCCC [heptane] + O=C=O
binary diffusion coefficient [m2/s]
Details | 1000 kPa | 10000 kPa | 30000 kPa | 31000 kPa | 48000 kPa | 49000 kPa | 50000 kPa | 51000 kPa | 67000 kPa | 68000 kPa
298 K | 7.28e-09 | 6.82e-09 | – | 5.9e-09 | – | – | 5.37e-09 | – | – | 5.06e-09
323 K | 9.25e-09 | 8.72e-09 | 7.64e-09 | – | – | – | – | 6.95e-09 | – | 6.37e-09
348 K | 1.14e-08 | 1.02e-08 | 9.4e-09 | – | 8.1e-09 | – | – | – | 7.89e-09 | –
373 K | 1.37e-08 | 1.25e-08 | 1.12e-08 | – | – | 9.95e-09 | – | – | – | 9.32e-09
398 K | 1.61e-08 | 1.49e-08 | 1.31e-08 | – | – | – | 1.17e-08 | – | – | 1.09e-08
423 K | 1.8e-08 | 1.68e-08 | 1.5e-08 | – | – | – | 1.36e-08 | – | – | 1.23e-08

CCCCCCCCCCCCCCCC [hexadecane] + O=C=O
Details | binary diffusion coefficient [m2/s]
298 K, 1000 kPa | 2.49e-09
298 K, 10000 kPa | 2.31e-09
298 K, 30000 kPa | 2.08e-09
323 K, 1100 kPa | 3.75e-09
323 K, 10000 kPa | 3.41e-09
323 K, 30000 kPa | 3.17e-09
323 K, 51000 kPa | 2.61e-09
323 K, 69000 kPa | 2.51e-09
348 K, 1000 kPa | 5.13e-09
348 K, 10000 kPa | 4.64e-09
348 K, 30000 kPa | 4.37e-09
348 K, 50000 kPa | 3.77e-09
348 K, 67000 kPa | 3.49e-09
373 K, 1100 kPa | 6.72e-09
373 K, 10000 kPa | 6.17e-09
373 K, 30000 kPa | 5.88e-09
373 K, 52000 kPa | 4.84e-09
373 K, 67000 kPa | 4.67e-09
398 K, 1100 kPa | 8.53e-09
398 K, 29000 kPa | 7.42e-09
398 K, 53000 kPa | 6.27e-09
398 K, 69000 kPa | 5.86e-09
423 K, 1100 kPa | 1.04e-08
423 K, 10000 kPa | 9.72e-09
423 K, 29000 kPa | 9.16e-09
423 K, 45000 kPa | 7.96e-09
423 K, 69000 kPa | 7.07e-09

CCCCCC [hexane] + O=C=O
Details | binary diffusion coefficient [m2/s]
298 K, 1300 kPa | 8.32e-09
298 K, 23000 kPa | 7.27e-09
298 K, 49000 kPa | 6.06e-09
298 K, 65000 kPa | 5.13e-09
323 K, 1200 kPa | 1.05e-08
323 K, 22000 kPa | 9.27e-09
323 K, 50000 kPa | 7.61e-09
323 K, 66000 kPa | 7.15e-09
373 K, 1200 kPa | 1.58e-08
373 K, 22000 kPa | 1.34e-08
373 K, 49000 kPa | 1.1e-08
373 K, 64000 kPa | 1.03e-08
423 K, 1200 kPa | 1.87e-08
423 K, 22000 kPa | 1.79e-08
423 K, 48000 kPa | 1.49e-08
423 K, 64000 kPa | 1.37e-08

CCCCCCCC [octane] + O=C=O
Details | binary diffusion coefficient [m2/s]
298 K, 1000 kPa | 6.32e-09
298 K, 11000 kPa | 5.66e-09
298 K, 33000 kPa | 4.72e-09
298 K, 50000 kPa | 4.28e-09
298 K, 66000 kPa | 3.83e-09
323 K, 900 kPa | 8.19e-09
323 K, 11000 kPa | 7.36e-09
323 K, 32000 kPa | 6.1e-09
323 K, 51000 kPa | 5.62e-09
323 K, 68000 kPa | 5.1e-09
348 K, 900 kPa | 1.04e-08
348 K, 11000 kPa | 8.98e-09
348 K, 33000 kPa | 7.7e-09
348 K, 50000 kPa | 7.07e-09
348 K, 69000 kPa | 6.54e-09
373 K, 1100 kPa | 1.26e-08
373 K, 11000 kPa | 1.11e-08
373 K, 31000 kPa | 9.46e-09
373 K, 50000 kPa | 8.87e-09
373 K, 67000 kPa | 8.01e-09
398 K, 1100 kPa | 1.48e-08
398 K, 11000 kPa | 1.34e-08
398 K, 31000 kPa | 1.14e-08
398 K, 51000 kPa | 1.06e-08
398 K, 69000 kPa | 9.67e-09
423 K, 1100 kPa | 1.67e-08
423 K, 11000 kPa | 1.62e-08
423 K, 29000 kPa | 1.36e-08
423 K, 51000 kPa | 1.27e-08
423 K, 65000 kPa | 1.14e-08

Cc1ccccc1 [toluene] + O=C=O
Details | binary diffusion coefficient [m2/s]
298 K, 1000 kPa | 5.53e-09
298 K, 11000 kPa | 5.09e-09
298 K, 30000 kPa | 4.77e-09
298 K, 48000 kPa | 4.28e-09
298 K, 68000 kPa | 3.92e-09
323 K, 1000 kPa | 7.28e-09
323 K, 10000 kPa | 6.78e-09
323 K, 30000 kPa | 6.32e-09
323 K, 49000 kPa | 5.7e-09
323 K, 66000 kPa | 5.17e-09
348 K, 1000 kPa | 9.26e-09
348 K, 11000 kPa | 8.62e-09
348 K, 30000 kPa | 8.02e-09
348 K, 48000 kPa | 7.31e-09
348 K, 67000 kPa | 6.54e-09
373 K, 1000 kPa | 1.14e-08
373 K, 10000 kPa | 1.04e-08
373 K, 30000 kPa | 9.81e-09
373 K, 51000 kPa | 8.94e-09
373 K, 67000 kPa | 8e-09
398 K, 1000 kPa | 1.38e-08
398 K, 10000 kPa | 1.24e-08
398 K, 30000 kPa | 1.17e-08
398 K, 48000 kPa | 1.05e-08
398 K, 68000 kPa | 9.6e-09
423 K, 1100 kPa | 1.6e-08
423 K, 10000 kPa | 1.5e-08
423 K, 30000 kPa | 1.4e-08
423 K, 50000 kPa | 1.23e-08
423 K, 67000 kPa | 1.14e-08
